# Literature values, collected in patent US20080200510A1, “Combination of Organic Compounds” (priority 2005, published 2008).
# Assays:
# diet-induced obesity = conditions: preclinical studies; by decreasing body weight, food intake, regulating circulating lipids and energy balance
# [1] = not given; remark: listed apart in the source
SMILES,"glycemia (agent alone, by preserving the incretin effects)",body weight (agent by itself),food intake (agent by itself),reversal of diet-induced obesity (diet-induced obesity),body weight reduction in clinic [1]
"N#C[C@@H]1CCCN1C(=O)CNC12CC3CC(CC(O)(C3)C1)C2 [Vildagliptin, (S)-1-[(3-hydroxy-1-adamantyl)amino]acetyl-2-cyano-pyrrolidine]",improves glycemia,–,–,–,–
"Cc1c(C(=O)NN2CCCCC2)nn(-c2ccc(Cl)cc2Cl)c1-c1ccc(Cl)cc1 [rimonabant, N-piperidino-5-(4-chlorophenyl)-1-(2,4-dichlorophenyl)-4-methylpyrazole-3-carboxamide]",–,reduction in body weight,decrease in food intake,effective in reversing diet-induced obesity,highly effective to produce body weight reduction
